In patent US20220071924A1, “TREATMENT OF OCULAR DISEASES WITH OPHTHALMIC TAPINAROF COMPOSITIONS” (Sol-Gel Technologies Ltd., priority 2019, published 2022):

Tested on: Demodex folliculorum
Assay: In vitro killing of live Demodex on epilated eyelashes, observed by light microscopy over 90 minutes
Conditions: for Kill Rate: 90 min observation; for Average Time to Death: value 90 denotes no effect
Source text: In Vitro Activity of Tapinarof Based Formulations in Killing Demodex folliculorum The purpose of this study is to evaluate the effectiveness of a composition comprising Tapinarof in killing Demodex for clinical treatment. […] Following informed consent, one to four lashes with significant cylindrical dandruff were selected for epilation. Lashes were firmly grasped near the base and gently teased out with a slow circular motion to prevent cylindrical dandruff and Demodex from being left behind on the lid margin. Epilated lashes were then placed onto a glass slide and the number of live organisms under light microscopy was then recorded. Lashes with live Demodex were then included in the study. Each lash obtained was then assigned to one of 13 study reagents (Table 1). […] Observation of the study material with the Demodex took place over 90 minutes with checks under light microscopy every five minutes for cessation of Demodex activity. Organism death was recorded when all rotary movement of Demodex appendages ceased. At least five lashes with live Demodex were evaluated for each reagent. Results were recorded in Microsoft Excel and statistical analysis for significant differences in average time to death were done with two-tailed t-test using the same software (Table 1). The value 90 was used to denote no effect.

[1] = reagent at 50%, checks every 5 min
[2] = reagent at 80%, checks every 5 min
[3] = tapinarof 0.1% in 50% isopropyl alcohol
[4] = tapinarof 0.5% in 50% isopropyl alcohol
[5] = tapinarof 1% in 50% isopropyl alcohol

SMILES	Kill Rate [1] [%]	Average Time to Death (reagent at 50%) [min]	Kill Rate [2] [%]	Average Time to Death (reagent at 80%) [min]	further results
CC(C)=O [Acetone]	33	82.5	29	9.7	–
CC#N [Acetonitrile]	88	31.43	100	5.83	–
CCO [Ethanol]	100	33.64	–	–	–
CC(C)O [Isopropyl alcohol]	0	>90	–	–	–
CC(C)c1c(O)cc(/C=C/c2ccccc2)cc1O [Tapinarof, 3,5-dihydroxy-4-isopropyl-trans-stilbene]	–	–	–	–	Kill Rate [3]: 8%; Average Time to Death [3]: 80 min; Kill Rate [4]: 29%; Average Time to Death [4]: 10.82 min; Kill Rate [5]: 33%; Average Time to Death [5]: 60 min; in vitro killing effect against Demodex mites (in words) (tapinarof at the 0.1% concentration (p=0.34)): a significant effect was not observed; in vitro killing effect against Demodex mites (in words) (tapinarof at the 0.5% and 1% concentrations): moderate in vitro killing effect
CCOCCOCCO [Transcutol]	100	35	100	15	–
